The results in this text go back to patent publication US20150366962A1 (priority 2014, published 2015).

For series [1] the following is noted: in EV3 and EV7; requested 0.22-0.44 mg/mL.
Series [2] deals with Mouse bone marrow-derived dendritic cells (mBMDCs). Description: Costimulatory-molecule (CD40, CD86) expression in mouse BMDCs. It is filed as cell-based, C57BL/6 mice. As to the method: (§1) (A) Upregulation of antigen uptake by 1Z105. BMDCs prepared from C57BL/6 mice were incubated with 10 μM 1Z105 or MPLA overnight. Antigen, Alexa Fluor 488-conjugated ovalbumin (OVA-488), was added to the culture for the last 30 min of incubation. The cells were washed and stained for CD11c. OVA-associated dendritic cells in the CD11c^hi population were evaluated by flow cytometry. Cells incubated at 4° C. served as a negative control. (B and C) Enhancement of expression of costimulatory molecules by 1Z105.WT (B) or Tlr4^−/− (C) BMDCs were incubated with 1Z105 (10 or 2 μM) or MPLA (0.04 μg/ml) overnight, and expression of CD40 and CD86 was assessed by flow cytometric assay. (D) 1Z105 promotes antigen cross-presentation. Wild-type BMDCs were incubated with 1Z105 (2 μM) overnight, and OVA (10 μg/ml) was added to the culture for the last 4 h of incubation. […] OT-1 T-cell proliferation was monitored by flow-cytometric assay. […] Cytokine release of IL-1β, IL-6, IL-8, IL-12p70, and TNF-α was determined by Luminex bead assay. […]
Mouse bone marrow-derived dendritic cells (mBMDCs) were prepared from wild type or Tlr4^−/− C57BL/6 mice. mBMDCs (10^5 cells per well) were plated in 96-well plates in 200 μl of complete RPMI 1640. […] The cells were stained for CD11c, and OVA uptake and expression of CD40 and CD86 in the CD11chi-gated population was determined by flow cytometry.

Series [3] has as its system CD8+ OT-1 T cells cultured with BMDCs. Description: OT-1 CD8 T cell proliferation assay (antigen cross-presentation). It is filed as cell-based, C57BL/6 mice. As to conditions: BMDCs with 1Z105 2 μM or MPLA 1 μg/ml overnight, OVA 10 μg/ml, 3 days. As to the method:
(A) Upregulation of antigen uptake by 1Z105. BMDCs prepared from C57BL/6 mice were incubated with 10 μM 1Z105 or MPLA overnight. Antigen, Alexa Fluor 488-conjugated ovalbumin (OVA-488), was added to the culture for the last 30 min of incubation. The cells were washed and stained for CD11c. OVA-associated dendritic cells in the CD11c^hi population were evaluated by flow cytometry. Cells incubated at 4° C. served as a negative control. (B and C) Enhancement of expression of costimulatory molecules by 1Z105.WT (B) or Tlr4^−/− (C) BMDCs were incubated with 1Z105 (10 or 2 μM) or MPLA (0.04 μg/ml) overnight, and expression of CD40 and CD86 was assessed by flow cytometric assay. (D) 1Z105 promotes antigen cross-presentation. Wild-type BMDCs were incubated with 1Z105 (2 μM) overnight, and OVA (10 μg/ml) was added to the culture for the last 4 h of incubation. The cells were washed and cultured with CFSE-labeled CD8^+ OT1Tcells for 3 days. OT-1 T-cell proliferation was monitored by flow-cytometric assay. […] Cytokine release of IL-1β, IL-6, IL-8, IL-12p70, and TNF-α was determined by Luminex bead assay. […]
Naive CD8^+ T cells from OT-1 C57BL/6 mice were isolated using an EasySep Mouse CD8^+ T Cell Isolation Kit and stained with carboxyfluorescein succinimidyl ester (CFSE) (10 μM). […] OT-1 T cell proliferation was monitored by CFSE dilution using a flow cytometer.

In series [4] the test system is human monocyte-derived DCs. The series can be described thus: Cytokine induction of human monocyte-derived dendritic cells (Luminex). It is filed as cell-based. As to conditions: 10 μM, 18 h. As to the method: as §1, with “cross-presentation.” for “cross-presentation. Wild-type BMDCs were incubated with 1Z105 (2 μM) overnight, and OVA (10 μg/ml) was added to the culture for the last 4 h of incubation.”
Human primary dendritic cells (DCs) were generated. […] The supernatants were stored at −20° C. for later quantification of released cytokines. Quantification of IL-1β, IL-6, IL-8, IL-12p70, and tumor necrosis factor alpha (TNF-α) released in supernatants was performed using the Milliplex Multiplex Assays (Luminex; Millipore, Billerica, Mass.) according to the manufacturer's instructions. Data were analyzed using the Milliplex Analyst software (Millipore).

For the next series, the system named is BMDC (C57BL/6). The series can be described thus: IL-6 and IP-10 release by BMDC with 1V270 with or without 1Z105. It is filed as cell-based, C57BL/6 mice. As to conditions: 1V270 0.025 or 0.1 μM with 1Z105 5 μM. Here is the method:
To evaluate whether 1Z105 can enhance the proinflammatory cytokine induction by 1V270, BMDC (C57BL/6) were incubated with 1V270 (0.025, or 0.1 μM) in the presence or absence of 1Z105 (5 μM). […] Antigen presenting function was evaluated using splenocytes prepared from OVA MHC class II-restricted alpha beta T cell receptor (TCR) transgenic mice OT-II. Splenocytes were cultured with OVA peptide (OVA323-339) for 3 days with 1Z105, or 1V270 alone or in combination. The frequency of intracellular (IC) IFNγ expressing CD4 T cells was determined by flow cytometric assay. Treatment with 1V270 alone increased intracellular IFNγ (3.7 and 6.8% by 25 and 100 nM, respectively).

`CCCCCCCCC=CCCCCCCCC(=O)OCC(COP(=O)(O)OCCNC(=O)c1ccc(Cn2c(=O)[nH]c3c(N)nc(OCCOC)nc32)cc1)OC(=O)CCCCCCCC=CCCCCCCCC` (stereo not shown) [Compound 1V270]: the “solubility of 1V270” value in series [1] is on record as “achieved to the requested concentration”.
Regarding `Cn1c2ccccc2c2nc(SCC(=O)NC3CCCCC3)n(-c3ccccc3)c(=O)c21` [Compound 1Z105], the “surface expression of CD40 and CD86” value in series [2] (TLR4-deficient (Tlr4-/-) BMDCs) is “not observed”. In addition, in series [2] (WT BMDCs, 1Z105 10 or 2 μM, MPLA 0.04 μg/ml, overnight), the “surface expression of CD40 and CD86” value is “increased the surface expression of CD40 and CD86 at levels similar to that of MPLA”. For the same compound, the “proliferation of OT-1 cells (antigen cross-presentation)” value in series [3] was “induced proliferation of OT-1 cells”. In addition, the “proinflammatory cytokine release (IL-1β, IL-6, IL-8, IL-12p70, TNF-α)” value in series [4] is reported as “activated human monocyte-derived DCs, resulting in proinflammatory cytokine release”. Moreover, in the series on BMDC (C57BL/6), the “IL-6 release induced by 1V270” value is “significantly enhanced” and the “IP-10 release induced by 1V270” value was “significantly enhanced”.
